Reference: patent US11098033B2, “Ku inhibitors and their use” (INDIANA UNIVERSITY RESEARCH AND TECHNOLOGY CORPORATION, priority 2016, dated 2021)
Values joined by “and” are separate entries in the source; they are usually repeats but may differ in a detail not shown here. Identical values can stand only once.

Target: T1, Recombinant human Ku heterodimer (Homo sapiens, UniProt P12956+P13010)
T1 construct: made in house; host or cells: insect cells infected with recombinant baculovirus
Experiment: Ku-DNA binding assay
Conditions: Table 2, synthesized derivatives; several values in a cell = separate determinations; read-out: IC50
Text: Ku is a DNA end-binding protein that is essential for the repair of DNA double strand breaks via the NHEJ pathway. The mechanism of DNA binding by Ku is via a toroid structure that encircles double-stranded DNA from a terminus.

T1 sequence (P12956 whole entry): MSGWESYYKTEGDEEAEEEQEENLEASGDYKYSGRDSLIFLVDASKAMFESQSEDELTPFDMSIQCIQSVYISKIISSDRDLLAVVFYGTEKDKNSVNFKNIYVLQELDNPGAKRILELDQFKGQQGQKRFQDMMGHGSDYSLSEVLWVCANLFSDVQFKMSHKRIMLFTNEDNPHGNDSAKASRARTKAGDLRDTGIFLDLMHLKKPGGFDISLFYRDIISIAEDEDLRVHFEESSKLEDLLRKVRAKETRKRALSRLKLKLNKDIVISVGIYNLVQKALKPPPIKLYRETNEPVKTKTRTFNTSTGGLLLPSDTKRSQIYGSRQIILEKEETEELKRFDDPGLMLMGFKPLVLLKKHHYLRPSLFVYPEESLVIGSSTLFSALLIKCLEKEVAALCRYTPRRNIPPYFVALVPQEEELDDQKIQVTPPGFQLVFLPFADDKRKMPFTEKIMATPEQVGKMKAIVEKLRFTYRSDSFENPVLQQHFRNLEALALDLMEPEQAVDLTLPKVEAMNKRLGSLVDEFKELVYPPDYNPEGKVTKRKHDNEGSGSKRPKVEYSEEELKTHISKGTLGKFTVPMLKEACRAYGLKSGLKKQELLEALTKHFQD
T1 sequence (P13010 whole entry): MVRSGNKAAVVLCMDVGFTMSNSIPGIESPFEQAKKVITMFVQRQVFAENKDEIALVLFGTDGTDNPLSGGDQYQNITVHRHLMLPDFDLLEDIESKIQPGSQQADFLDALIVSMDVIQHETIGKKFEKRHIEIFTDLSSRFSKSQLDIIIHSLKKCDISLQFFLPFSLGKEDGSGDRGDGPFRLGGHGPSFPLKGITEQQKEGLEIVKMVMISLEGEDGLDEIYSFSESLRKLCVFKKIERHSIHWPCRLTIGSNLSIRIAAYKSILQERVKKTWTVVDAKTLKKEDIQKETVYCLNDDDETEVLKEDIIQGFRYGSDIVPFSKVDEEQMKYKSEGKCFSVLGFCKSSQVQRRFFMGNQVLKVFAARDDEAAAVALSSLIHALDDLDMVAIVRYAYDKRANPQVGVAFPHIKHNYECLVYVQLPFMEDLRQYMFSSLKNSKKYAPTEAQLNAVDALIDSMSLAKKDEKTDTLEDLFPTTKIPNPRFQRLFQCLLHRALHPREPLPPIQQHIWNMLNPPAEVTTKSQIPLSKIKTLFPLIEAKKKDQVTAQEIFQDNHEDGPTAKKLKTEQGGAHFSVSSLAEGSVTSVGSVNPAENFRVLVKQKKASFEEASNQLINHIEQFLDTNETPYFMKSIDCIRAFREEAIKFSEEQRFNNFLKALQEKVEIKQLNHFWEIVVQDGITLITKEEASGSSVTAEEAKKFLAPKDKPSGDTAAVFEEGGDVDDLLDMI

| SMILES | IC50 |
| --- | --- |
| CC1=NN(c2cccc(C(=O)O)c2)C(=O)C1Cc1ccc(-c2ccc(Cl)c(C(=O)NCc3ccc(F)cc3)c2)o1 (stereo not drawn) [NG-01-65, 3-(4-((5-(4-Chloro-3-((4-fluorobenzyl)carbamoyl)phenyl)furan-2-yl)methyl)-3-methyl-5-oxo-4,5-dihydro-1H-pyrazol-1-yl)benzoic acid] | 8 µM |
| CC1=NN(c2cccc(C(=O)O)c2)C(=O)/C1=C\c1ccc(-c2ccc(Cl)c(C(=O)NCC3CC3)c2)o1 [NG-01-70, (Z)-3-(4-((5-(4-Chloro-3-((cyclopropylmethyl)carbamoyl)phenyl)furan-2-yl)methylene)-3-methyl-5-oxo-4,5-dihydro-1H-pyrazol-1-yl)benzoic acid] | 25 µM and > 50 µM |
| CC1=NN(c2cccc(C(=O)O)c2)C(=O)C1Cc1ccc(-c2ccc(Cl)c(C(=O)NCC3CC3)c2)o1 (stereo not drawn) [NG-01-72, 3-(4-((5-(4-Chloro-3-((cyclopropylmethyl)carbamoyl)phenyl)furan-2-yl)methyl)-3-methyl-5-oxo-4,5-dihydro-1H-pyrazol-1-yl)benzoic acid] | 10 µM |
| COc1cccc(NC(=O)c2ccc(/C=C3\C(=O)N(c4cccc(C(=O)O)c4)N=C3C)o2)c1 [NG-02-162/ NG-02-162C, (Z)-3-(4-((5-((3-methoxyphenyl)carbamoyl)furan-2-yl)methylene)-3-methyl-5-oxo-4,5-dihydro-1H-pyrazol-1-yl)benzoic acid] | 8 µM and 11 µM |
| COc1cccc(NC(=O)c2ccc(CC3C(=O)N(c4cccc(C(=O)O)c4)N=C3C)o2)c1 (stereo not drawn) [NG-02-165, 3-(4-((5-((3-Methoxyphenyl)carbamoyl)furan-2-yl)methyl)-3-methyl-5-oxo-4,5-dihydro-1H-pyrazol-1-yl)benzoic acid] | 11 µM |
| COc1cccc(NC(=O)c2cc(-c3ccc(CC4C(=O)N(c5ccc(C(=O)O)cc5)N=C4C)o3)ccc2Cl)c1 (stereo not drawn) [NG-03-188, 4-(4-((5-(4-Chloro-3-((3-methoxyphenyl)carbamoyl)phenyl)furan-2-yl)methyl)-3-methyl-5-oxo-4,5-dihydro-1H-pyrazol-1-yl)benzoic acid] | 12.5 µM and 6 µM |
| COc1cccc(NC(=O)c2cc(-c3ccc(/C=C4\C(=O)N(c5cccc(C(=O)O)c5)N=C4C)s3)ccc2Cl)c1 [NG-03-203, (Z)-3-(4-((5-(4-chloro-3-((3-methoxyphenyl)carbamoyl)phenyl)thiophen-2-yl)methylene)-3-methyl-5-oxo-4,5-dihydro-1H-pyrazol-1-yl)benzoic acid] | 18 µM |
| COc1ccc(NC(=O)c2cc(-c3ccc(CC4C(=O)N(c5cccc(C(=O)O)c5)N=C4C)o3)ccc2Cl)cc1OC (stereo not drawn) [NG-03-206, 3-(4-((5-(4-Chloro-3-((3,4-dimethoxyphenyl)carbamoyl)phenyl)furan-2-yl)methyl)-3-methyl-5-oxo-4,5-dihydro-1H-pyrazol-1-yl)benzoic acid] | 7.5 µM |
| COc1cccc(NC(=O)c2cc(-c3ccc(CC4C(=O)N(c5cccc(C(=O)O)c5)N=C4C)s3)ccc2Cl)c1 (stereo not drawn) [NG-03-207, 3-(4-((5-(4-chloro-3-((3-Methoxyphenyl)carbamoyl)phenyl)thiophen-2-yl)methyl)-3-methyl-5-oxo-4,5-dihydro-1H-pyrazol-1-yl)benzoic acid] | 7 µM |
| CC1=NN(c2ccc(S(N)(=O)=O)cc2)C(=O)/C1=C\c1ccc(-c2ccc(Cl)c(C(=O)NCC3CC3)c2)o1 [NG-03-212, (Z)-2-chloro-N-(cyclopropylmethyl)-5-(5-((3-methyl-5-oxo-1-(4-sulfamoylphenyl)-1,5-dihydro-4H-pyrazol-4-ylidene)methyl)furan-2-yl)benzamide] | 30 µM |
| CC1=NN(c2cccc(C(=O)O)c2)C(=O)/C1=C\c1ccc(-c2ccc(Cl)c(C(=O)O)c2)s1 [NG-03-224, (Z)-5-(5-((1-(3-Carboxyphenyl)-3-methyl-5-oxo-1,5-dihydro-4H-pyrazol-4-ylidene)methyl)thiophen-2-yl)-2-chlorobenzoic acid] | 15 µM |
| CC1=NN(c2cccc(C(=O)O)c2)C(=O)/C1=C\c1ccc(-c2ccc(Cl)c(C(=O)NCC3CC3)c2)s1 [NG-03-226, (Z)-3-(4-((5-(4-Chloro-3-((cyclopropylmethyl)carbamoyl)phenyl)thiophen-2-yl)methylene)-3-methyl-5-oxo-4,5-dihydro-1H-pyrazol-1-yl)benzoic acid] | 7 µM |
| CC1=NN(c2cccc(C(=O)O)c2)C(=O)C1Cc1ccc(-c2ccc(Cl)c(C(=O)NCC3CC3)c2)s1 (stereo not drawn) [NG-03-231, 3-(4-((5-(4-Chloro-3-((cyclopropylmethyl)carbamoyl)phenyl)thiophen-2-yl)methyl)-3-methyl-5-oxo-4,5-dihydro-1H-pyrazol-1-yl)benzoic acid] | 12 µM |
| CC1=NN(c2ccc(C(=O)O)cc2)C(=O)/C1=C\c1ccc(-c2ccc(Cl)c(C(=O)O)c2)s1 [NG-03-234, (Z)-5-(5-((1-(4-Carboxyphenyl)-3-methyl-5-oxo-1,5-dihydro-4H-pyrazol-4-ylidene)methyl)thiophen-2-yl)-2-chlorobenzoic acid] | 6 µM |

Now from value to compound:

| IC50 | SMILES |
| --- | --- |
| 3 µM | CCOC(=O)c1cccc(N2N=C(C)/C(=C/c3ccc(-c4ccc(Cl)c(C(=O)Nc5cccc(OC)c5)c4)o3)C2=O)c1 [NG-02-130, (Z)-Ethyl 3-(4-((5-(4-chloro-3-((3-methoxyphenyl)carbamoyl)phenyl)furan-2-yl)methylene)-3-methyl-5-oxo-4,5-dihydro-1H-pyrazol-1-yl)benzoate] |
| 3 µM | CCOC(=O)c1cccc(N2N=C(C)C(Cc3ccc(-c4ccc(Cl)c(C(=O)Nc5cccc(OC)c5)c4)o3)C2=O)c1 (stereo not drawn) [NG-02-131, Ethyl 3-(4-((5-(4-chloro-3-((3-methoxyphenyl)carbamoyl)phenyl)furan-2-yl)methyl)-3-methyl-5-oxo-4,5-dihydro-1H-pyrazol-1-yl)benzoate] |
| 4 µM | COc1cccc(NC(=O)c2cc(-c3ccc(/C=C4\C(=O)N(c5cccc(-c6nnn[nH]6)c5)N=C4C)o3)ccc2Cl)c1 [NG-02-201/ NG-03-244] |
| 14 µM | COc1ccc(NC(=O)c2cc(-c3ccc(/C=C4\C(=O)N(c5cccc(C(=O)O)c5)N=C4C)o3)ccc2Cl)cc1OC [NG-03-189, (Z)-3-(4-((5-(4-chloro-3-((3,4-dimethoxyphenyl)carbamoyl)phenyl)furan-2-yl)methylene)-3-methyl-5-oxo-4,5-dihydro-1H-pyrazol-1-yl)benzoic acid] |
| 20 µM | COc1cccc(NC(=O)c2cc(-c3ccc(/C=C4\C(=O)N(c5ccc(S(N)(=O)=O)cc5)N=C4C)o3)ccc2Cl)c1 [NG-03-196, (Z)-2-chloro-N-(3-methoxyphenyl)-5-(5-((3-methyl-5-oxo-1-(4-sulfamoylphenyl)-1,5-dihydro-4H-pyrazol-4-ylidene)methyl)furan-2-yl)benzamide] |
| 4.5 µM and 6.5 µM | COc1cccc(NC(=O)c2cc(-c3ccc(/C=C4\C(=O)N(c5cccc(-c6nnn[nH]6)c5)N=C4C)o3)ccc2Cl)c1 [NG-03-201, (Z)-5-(5-((1-(3-(1H-Tetrazol-5-yl)phenyl)-3-methyl-5-oxo-1,5-dihydro-4H-pyrazol-4-ylidene)methyl)furan-2-yl)-2-chloro-N-(3-methoxyphenyl)benzamide] |
| 8.75 µM | CCOC(=O)c1ccc(N2N=C(C)/C(=C/c3ccc(-c4ccc(Cl)c(C(=O)Nc5cccc(OC)c5)c4)s3)C2=O)cc1 [NG-03-235, Ethyl (Z)-4-(4-((5-(4-chloro-3-((3-methoxyphenyl)carbamoyl)phenyl)thiophen-2-yl)methylene)-3-methyl-5-oxo-4,5-dihydro-1H-pyrazol-1-yl)benzoate] |
